# Reference: US11534412B2, “Application of totarol and pharmaceutical composition containing totarol” (Emergopharm SP. Z O.O. SP.K., priority 2017, dated 2022)
# Tested on: Streptococcus agalactiae - clinical strain
# Test: Determination of the MIC value of totarol, broth dilution in 96-well plates with OD and quantitative culture
# Format: cell-based
# Details: for OD, average of 3 measurements / OD: 620 nm
# Method: Test of antibacterial activity of totarol using DMI (dimethylisosorbide) as a solvent.
# 1 ml of the suspension was collected to 9 ml of a TSB broth ([…]). Suspensions with a dilution of 10^−6 were prepared in the described way. A suspension with a cell density of 10^5 cfu/ml was selected for further investigations. For each strain, 2 96-well plates were prepared: the first one was intended for the OD measurement, the second one—for quantitative culture on solid media. • A/ to wells B1-D1, B2-D2 and B-D 4-11, 100 µl of the broth were added; • B/ to wells B3-D3, 200 µl of the broth were added; • C/ to wells B1-D1, 1 µl of stock I was added; • D/ to wells B2-D2, 1 µl of stock II was added; • E/ to wells B3-D3, 2 µl of stock III were added. Using a multichannel pipette, 100 µl of the sample were collected from each of the B3-D3 wells and placed in wells B4-D4 (mixing by sucking the content in and letting it out for 5 times). The pipette tips were replaced and 100 µl of the content were collected from of the B4-D4 wells, and placed in wells B5-D5, mixing as previously. These operations were repeated through the wells B11-D11. The content in the B11-D11 wells was mixed, and 100 µl of the fluid were collected and discarded. This way, a series of dilutions of totarol samples in DMI in the range of 0.32% to 0.0004% was obtained. Then, 100 µl of a corresponding bacterial culture were added to the wells B, C, D 1-11. In consequence, a change in the final concentration range occurred, to 0.16%-0.0002%. Control Preparation: • Negative control: 100 µl of the broth+1 pl DMI were added to the Al well. • Positive control (I): 100 µl of the broth with the bacterial culture were added to the wells E1-G1. • Diluent positive control (II): 100 µl of the broth with the bacterial culture+1 pl DMI were added to the wells E2-G2. The OD value in the individual wells was read at the wavelength of 620 nm (read time 0). From the second 96-well plate, a culture was inoculated by a quantitative method from every dilution onto a well with a proper solid medium, and incubated for 24 h at 37° C. under aerobic or anaerobic conditions, depending on the strain. The plates were incubated under aerobic conditions or in an atmosphere of an elevated CO2 concentration (for the strains requiring it) in an incubator at 37° C. The OD was read after 8 h, 16 h, and 24 h, respectively. Before every OD measurement, the contents of the wells were mixed delicately. In parallel to the OD readout, cultures we inoculated from the second 96-well plate, from every dilution, into plates with a proper solid medium, and incubated for 24 h at 37° C., under aerobic or anaerobic conditions. For the analysis of the experimental results, an average value of the OD measurement obtained from three repetitions in the individual times (0, 8, 16, and 24 h) for the individual microbes (Gardnerella vaginalis, Streptococcus agalactiae, Enterococcus faecalis, Lactobacillus gasseri/plantarum) was taken. Additionally, the number of bacteria grown on solid media was taken into account. The results of the tests confirm the specific, concentration-dependent selectiveness, and the high antibacterial effectiveness of totarol against the pathogenic microorganisms: Gardnerella vaginalis, Streptococcus agalactiae, Enterococcus faecalis at low MIC values safe for bacteria of the Lactobacillus genus.
smiles,measurement,setting,value
"CC(C)c1c(O)ccc2c1CC[C@H]1C(C)(C)CCC[C@]21C [Totarol, totarol]",MIC value,S. agalactiae,0.0013%
same,Viable bacterial count by quantitative culture (cfu/ml),"totarol 0.0002%, 0 h",3.4 × 10^5 cfu/ml
same,"OD, average of 3 measurements","totarol 0.0002%, 0 h",0.289
same,Viable bacterial count by quantitative culture (cfu/ml),"totarol 0.0002%, 8 h",4 × 10^6 cfu/ml
same,"OD, average of 3 measurements","totarol 0.0002%, 8 h",0.314
same,Viable bacterial count by quantitative culture (cfu/ml),"totarol 0.0002%, 16 h",1.1 × 10^6 cfu/ml
same,"OD, average of 3 measurements","totarol 0.0002%, 16 h",0.498
same,Viable bacterial count by quantitative culture (cfu/ml),"totarol 0.0002%, 24 h",1 × 10^7 cfu/ml
same,OD,"totarol 0.0002%, 24 h",0.682
same,Viable bacterial count by quantitative culture (cfu/ml),"totarol 0.0004%, 0 h",6 × 10^5 cfu/ml
same,"OD, average of 3 measurements","totarol 0.0004%, 0 h",0.305
same,Viable bacterial count by quantitative culture (cfu/ml),"totarol 0.0004%, 8 h",6 × 10^6 cfu/ml
same,"OD, average of 3 measurements","totarol 0.0004%, 8 h",0.318
same,Viable bacterial count by quantitative culture (cfu/ml),"totarol 0.0004%, 16 h",9.1 × 10^5 cfu/ml
same,"OD, average of 3 measurements","totarol 0.0004%, 16 h",0.493
same,Viable bacterial count by quantitative culture (cfu/ml),"totarol 0.0004%, 24 h",2 × 10^7 cfu/ml
same,OD,"totarol 0.0004%, 24 h",0.668
same,Viable bacterial count by quantitative culture (cfu/ml),"totarol 0.0007%, 0 h",4.5 × 10^5 cfu/ml
same,"OD, average of 3 measurements","totarol 0.0007%, 0 h",0.297
same,Inoculation cfu/ml,"totarol 0.0007%, 8 h",6 × 10^4 cfu/ml
same,"OD, average of 3 measurements","totarol 0.0007%, 8 h",0.319
same,Viable bacterial count by quantitative culture (cfu/ml),"totarol 0.0007%, 16 h",3.5 × 10^6 cfu/ml
same,"OD, average of 3 measurements","totarol 0.0007%, 16 h",0.630
same,Viable bacterial count by quantitative culture (cfu/ml),"totarol 0.0007%, 24 h",6 × 10^7 cfu/ml
same,OD,"totarol 0.0007%, 24 h",0.941
same,Viable bacterial count by quantitative culture (cfu/ml),"totarol 0.0013%, 0 h",3.3 × 10^5 cfu/ml
same,"OD, average of 3 measurements","totarol 0.0013%, 0 h",0.299
same,Viable bacterial count by quantitative culture (cfu/ml),"totarol 0.0013%, 8 h",0 cfu/ml
same,"OD, average of 3 measurements","totarol 0.0013%, 8 h",0.302
same,Viable bacterial count by quantitative culture (cfu/ml),"totarol 0.0013%, 16 h",0 cfu/ml
same,"OD, average of 3 measurements","totarol 0.0013%, 16 h",0.302
same,Viable bacterial count by quantitative culture (cfu/ml),"totarol 0.0013%, 24 h",0 cfu/ml
same,OD,"totarol 0.0013%, 24 h",0.302
same,Viable bacterial count by quantitative culture (cfu/ml),"totarol 0.0025%, 0 h",2.6 × 10^5 cfu/ml
same,"OD, average of 3 measurements","totarol 0.0025%, 0 h",0.289
same,Viable bacterial count by quantitative culture (cfu/ml),"totarol 0.0025%, 8 h",0 cfu/ml
same,"OD, average of 3 measurements","totarol 0.0025%, 8 h",0.290
same,Viable bacterial count by quantitative culture (cfu/ml),"totarol 0.0025%, 16 h",0 cfu/ml
same,"OD, average of 3 measurements","totarol 0.0025%, 16 h",0.291
same,Viable bacterial count by quantitative culture (cfu/ml),"totarol 0.0025%, 24 h",0 cfu/ml
same,OD,"totarol 0.0025%, 24 h",0.291
same,Viable bacterial count by quantitative culture (cfu/ml),"totarol 0.005%, 0 h",1.5 × 10^5 cfu/ml
same,"OD, average of 3 measurements","totarol 0.005%, 0 h",0.288
same,Viable bacterial count by quantitative culture (cfu/ml),"totarol 0.005%, 8 h",0 cfu/ml
same,"OD, average of 3 measurements","totarol 0.005%, 8 h",0.292
same,Viable bacterial count by quantitative culture (cfu/ml),"totarol 0.005%, 16 h",0 cfu/ml
same,"OD, average of 3 measurements","totarol 0.005%, 16 h",0.296
same,Viable bacterial count by quantitative culture (cfu/ml),"totarol 0.005%, 24 h",0 cfu/ml
same,OD,"totarol 0.005%, 24 h",0.300
same,Viable bacterial count by quantitative culture (cfu/ml),"totarol 0.01%, 0 h",10^5 cfu/ml
same,"OD, average of 3 measurements","totarol 0.01%, 0 h",0.297
same,Viable bacterial count by quantitative culture (cfu/ml),"totarol 0.01%, 8 h",0 cfu/ml
same,"OD, average of 3 measurements","totarol 0.01%, 8 h",0.295
same,Viable bacterial count by quantitative culture (cfu/ml),"totarol 0.01%, 16 h",0 cfu/ml
same,"OD, average of 3 measurements","totarol 0.01%, 16 h",0.301
same,Viable bacterial count by quantitative culture (cfu/ml),"totarol 0.01%, 24 h",0 cfu/ml
same,OD,"totarol 0.01%, 24 h",0.307
same,Viable bacterial count by quantitative culture (cfu/ml),"totarol 0.02%, 0 h",10^5 cfu/ml
same,"OD, average of 3 measurements","totarol 0.02%, 0 h",0.318
same,Viable bacterial count by quantitative culture (cfu/ml),"totarol 0.02%, 8 h",0 cfu/ml
same,"OD, average of 3 measurements","totarol 0.02%, 8 h",0.323
same,Viable bacterial count by quantitative culture (cfu/ml),"totarol 0.02%, 16 h",0 cfu/ml
same,"OD, average of 3 measurements","totarol 0.02%, 16 h",0.324
same,Viable bacterial count by quantitative culture (cfu/ml),"totarol 0.02%, 24 h",0 cfu/ml
same,OD,"totarol 0.02%, 24 h",0.324
same,Viable bacterial count by quantitative culture (cfu/ml),"totarol 0.04%, 0 h",3 × 10^5 cfu/ml
same,"OD, average of 3 measurements","totarol 0.04%, 0 h",0.406
same,Viable bacterial count by quantitative culture (cfu/ml),"totarol 0.04%, 8 h",0 cfu/ml
same,"OD, average of 3 measurements","totarol 0.04%, 8 h",0.535
same,Viable bacterial count by quantitative culture (cfu/ml),"totarol 0.04%, 16 h",0 cfu/ml
same,"OD, average of 3 measurements","totarol 0.04%, 16 h",0.489
same,Viable bacterial count by quantitative culture (cfu/ml),"totarol 0.04%, 24 h",0 cfu/ml
same,OD,"totarol 0.04%, 24 h",0.405
same,Viable bacterial count by quantitative culture (cfu/ml),"totarol 0.08%, 0 h",5 × 10^5 cfu/ml
same,"OD, average of 3 measurements","totarol 0.08%, 0 h",0.563
same,Viable bacterial count by quantitative culture (cfu/ml),"totarol 0.08%, 8 h",0 cfu/ml
same,"OD, average of 3 measurements","totarol 0.08%, 8 h",0.564
same,Viable bacterial count by quantitative culture (cfu/ml),"totarol 0.08%, 16 h",0 cfu/ml
same,"OD, average of 3 measurements","totarol 0.08%, 16 h",0.540
same,Viable bacterial count by quantitative culture (cfu/ml),"totarol 0.08%, 24 h",0 cfu/ml
same,OD,"totarol 0.08%, 24 h",0.430
same,Viable bacterial count by quantitative culture (cfu/ml),"totarol 0.16%, 0 h",2 × 10^5 cfu/ml
same,"OD, average of 3 measurements","totarol 0.16%, 0 h",0.512
same,Viable bacterial count by quantitative culture (cfu/ml),"totarol 0.16%, 8 h",0 cfu/ml
same,"OD, average of 3 measurements","totarol 0.16%, 8 h",0.605
same,Viable bacterial count by quantitative culture (cfu/ml),"totarol 0.16%, 16 h",0 cfu/ml
same,"OD, average of 3 measurements","totarol 0.16%, 16 h",0.569
same,Viable bacterial count by quantitative culture (cfu/ml),"totarol 0.16%, 24 h",0 cfu/ml
same,OD,"totarol 0.16%, 24 h",0.615
